Measured values taken from US20170189496A1, “USE OF PHOSPHORYLATION PATHWAY-RELATED FACTOR IN REGULATING FUNCTION OF REGULATORY T CELL” (Institut Pasteur of Shanghai, Chinese Academy of Sciences, priority 2012, published 2017).
Entries after “also recorded” stand apart in the source; their conditions may differ.

What was measured:
Assay type in all cases: cell-based
[1] = system: induced Treg cells from human CD4+ CD45RA+ natural T cells; assay: FOXP3 and CTLA4 expression in induced Treg (flow cytometry); settings: 50 uM, 48 h, vs DMSO control group
Description: Human CD4+ CD45RA+ natural T cells (i.e., natural T cells rather than Treg cells) were sorted by BD FACS Aria II flow sorter and expanded by Bead-CD3/CD28 (2:1), IL-2 (100 U/ml), and TGF-β (1 ng/ml, 3 ng/ml, and 5 ng/ml) for 5 days. DMSO or kaempferol (50 uM) was added and treated for 48 h. Flow cytometry analysis was performed after PE-FOXP3 (FIG. 14B) and APC-CTLA4 (FIG. 14A) antibody staining.
Human CD4+ CD45RA+ natural T cells (i.e., natural T cells rather than Treg cells) were sorted by BD FACS Aria II flow sorter and expanded using Bead-CD3/CD28 (2:1). IL-2 (100 U/ml), and TGF-β (1 ng/ml, 3 ng/ml, and 5 ng/ml) for 5 days to obtain the induced Treg cells. DMSO or kaempferol (50 uM) was added and treated for 48 h.

PIM1 [2] = molecular target: T1, PIM1 (Homo sapiens, UniProt P11309); assay: Histone H3 S10 phosphorylation induced by PIM1 in HEK293T cells (immunoblot); parameters: expressed in transfected cells; host or cells: HEK293T; settings: 50 μM, 12 h
T1 sequence (P11309 whole entry): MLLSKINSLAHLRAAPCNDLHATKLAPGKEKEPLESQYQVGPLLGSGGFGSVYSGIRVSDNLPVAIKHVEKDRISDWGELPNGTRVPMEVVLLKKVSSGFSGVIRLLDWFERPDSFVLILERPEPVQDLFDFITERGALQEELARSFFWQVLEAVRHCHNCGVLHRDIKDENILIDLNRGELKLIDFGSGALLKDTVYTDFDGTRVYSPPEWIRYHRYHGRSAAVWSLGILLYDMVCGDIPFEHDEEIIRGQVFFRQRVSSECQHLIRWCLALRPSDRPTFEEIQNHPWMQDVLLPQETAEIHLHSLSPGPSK
Description: FLAG-PIM1 was transfected into HEK293T cells. 36 h later, cells were treated with 50 μM of kaempferol for 12 h. 48 h after cell transfection, cells were treated in whole cell lysis solution. The levels of phosphorylated (Phospho)-histone H3S10, histone H3, and PIM1 were detected directly by immunoblot.
(§1) FLAG-PIM1 was transfected and MYC-FOXP3 and FLAG-PIM1 co-transfected into HEK293T cells. After 36 h, HEK293 was used as blank control group and each group was treated with 50 μM of kaempferol for 12 h. After 48 h, cells collected and lysed by cell lysis buffer. The levels of pS422-FOXP3, FOXP3, phosphorylated-histone H3 (Ser10), histone H3, and GAPDH were detected directly by immunoblot.
(§2) Protein samples were subjected to SDS-PAGE, and then transferred to nitrocellulose membrane, which was then sealed in TBST containing 5% nonfat dry milk or 3% bovine serum albumin for 1 h. Primary antibody was added and incubated for 1 h and then HRP-conjugated secondary antibody was added and incubated for 1 h, and results shown by exposure with ECL substrates.
HEK293T cells were co-transfected with MYC-FOXP3 and FLAG-PIM1. 36 h later, cells were treated with 50 μM of kaempferol for 12 h. Cells were collected at 48h after transfection and directly sonicated in SDS-loading buffer, and lysed by boiling.
HEK293T cells were transfected with FLAG-PIM1, and co-transfected with MYC-FOXP3 and FLAG-PIM1. 36 h later, HEK293 was used as blank control group and each group was treated with 50 μM of kaempferol for 12 h, respectively. Cells were collected alter 48 h and lysed with cell lysis buffer. The levels of pS422-FOXP3, FOXP3, histone H3 Ser10 phosphorylation, histone H3, and GAPDH were directly detected by immunoblot (results shown in FIG. 12).

PIM2 = molecular target: T2, PIM2 (Homo sapiens, UniProt Q9P1W9); assay: FOXP3 phosphorylation induced by PIM2 in HEK293T cells (immunoblot); settings: Myc-FOXP3 + FLAG-PIM2, 50 μM, 12 h
T2 construct: expressed in transfected cells; host or cells: HEK293T
T2 sequence (Q9P1W9 whole entry): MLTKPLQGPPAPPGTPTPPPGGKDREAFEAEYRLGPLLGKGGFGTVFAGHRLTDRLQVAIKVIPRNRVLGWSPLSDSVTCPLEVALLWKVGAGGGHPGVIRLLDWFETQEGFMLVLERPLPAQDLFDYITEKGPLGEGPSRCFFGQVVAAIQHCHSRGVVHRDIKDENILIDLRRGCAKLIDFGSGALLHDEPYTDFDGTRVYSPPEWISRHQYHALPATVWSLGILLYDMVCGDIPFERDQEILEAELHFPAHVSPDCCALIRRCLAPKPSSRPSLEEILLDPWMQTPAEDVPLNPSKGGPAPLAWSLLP
Description: (§3) Myc-FOXP3, FLAG-PIM1, FLAG-PIM2, and FLAG-PIM3 were co-transfected into HEK293T cells. 36 h later, cells were treated with 50 μM of kaempferol for 12 h. Cells were collected 48 h after cell transfection.
as §2
(§4) HEK293T cells were co-transfected, respectively, with Myc-FOXP3+FLAG-PIM1, Myc-FOXP3+FLAG-PIM2, and Myc-FOXP3+FLAG-PIM3. 36 h later, cells were treated with 50 μM kaempferol for 12 h. After 48 h. cells were collected and lysed with cell lysis buffer.

[3] = system: Jurkat cells stably expressing HA-FOXP3; assay: FOXP3 protein degradation induced by PMA/LPS in Jurkat cells stably expressing HA-FOXP3 (immunoblot); settings: PMA 25 ng/ml + LPS 1 ng/ml, 24 h; kaempferol 50 μM, PIM1 inhibitor 100 nM, PI3K inhibitor 10 μg/ml; DMSO control
Description: HA-FOXP3-Jurkat stable expression cells were treated with PMA (25 ng/ml) and LPS (1 ng/ml). 50 μM kaempferol, 100 nM PIM1 inhibitors (specifically of 4-[3-(4-chlorophenyl)-2,1-benzisoxazol-5-yl]-2-pyrimidinamine), and 10 μg/ml PI3K inhibitor (LY294002) were added, and DMSO as a control. Cells were collected 24 h later. The levels of FOXP3 and GAPDH were detected directly by immunoblot.
Human embryonic kidney cell line HEK293 was co-transfected with FUGW-HA-FOXP3, del 8.9 and VSV-G. Cell culture supernatants were collected 48 h and 72 h after transfection. Viruses were purified by ultracentrifugation and used to infect Jurkat E6.1 to ultimately obtain Jurkat cell lines stably expressing HA-FOXP3.
as §2
Jurkat cells stably expressing HA-FOXP3 were treated with PMA (25 ng/ml) and LPS (1 ng/ml). Each sample was added 50 μM kaempferol, 100 nM PIM1 inhibitor (i.e., 4-[3-(4-chlorophenyl)-2,1-benzisoxazol-5-yl]-2-pyrimidinamine), and 10 μg/ml PI3K inhibitor (LY294002). DMSO serves as a control. Cells were collected after 24 h.

PIM3 = molecular target: T3, PIM3 (Homo sapiens, UniProt Q86V86); assay: FOXP3 phosphorylation induced by PIM3 in HEK293T cells (immunoblot); settings: Myc-FOXP3 + FLAG-PIM3, 50 μM, 12 h
T3 construct: expressed in transfected cells; host or cells: HEK293T
Description: as §3, §2, §4

PIM1 [4] = molecular target: T1, PIM1; assay: FOXP3 S422 phosphorylation induced by PIM1 in HEK293T cells (immunoblot); parameters: expressed in transfected cells; host or cells: HEK293T
Description: Myc-FOXP3 and FLAG-PIM1 were co-transfected into HEK293T cells. After 36 h, cells were treated, respectively, with 50 nM, 10 nM, 2 nM, 0.4 nM of PIM1 inhibitor and 50 μM, 10 μM, 2 μM, 0.4 μM, 0.08 μM of kaempferol for 12 h. Cells were collected at 48 h after cell transfection.
as §3, §1
Protein samples were subjected to SDS-PAGE, and then transferred to nitrocellulose membrane, which was then sealed in TBST containing 5% nonfat dry milk or 3% bovine serum albumin for 1 h. […]
HEK293T cells were transfected with FLAG-PIM1, and co-transfected with MYC-FOXP3 and FLAG-PIM1. […] The levels of pS422-FOXP3, FOXP3, histone H3 Ser10 phosphorylation, histone H3, and GAPDH were directly detected by immunoblot (results shown in FIG. 12).

[5] = HEK293T transfected with FLAG-PIM1

## O=c1c(O)c(-c2ccc(O)cc2)oc2cc(O)cc(O)c12 [kaempferol]
[1]
  CLTA4+ FOXP3+ Treg cell levels: significantly increase
  FOXP3 expression levels: significantly increase
PIM1 [2]; [5]
  PIM1 expression levels: does not affect
  histone H3 S10 phosphorylation induced by PIM1: inhibits; also recorded: can inhibit
PIM1 [2]; HEK293 blank control group (no PIM1 transfection)
  histone H3 S10 phosphorylation in the control group: does not affect
PIM2
  FOXP3 phosphorylation levels induced by PIM2: does not affect
[3]
  FOXP3 protein degradation: can inhibit
PIM3
  FOXP3 phosphorylation levels induced by PIM3: does not affect
PIM1 [4]; MYC-FOXP3 + FLAG-PIM1, 50, 10, 2, 0.4, 0.08 μM for 12 h
  FOXP3 S422 phosphorylation, dose response: inhibits FOXP3 S422 phosphorylation in a dose-dependent manner
PIM1 [4]; Myc-FOXP3 + FLAG-PIM1, 50 μM, 12 h
  FOXP3 S422 phosphorylation induced by PIM1: specifically inhibits; also recorded: can inhibit
